Results published in patent publication US12214076B2, “Drug delivery vehicles for atherosclerosis nanomedicine” (Northwestern University, priority 2019, dated 2025).

How the values were obtained:
[1] = Small angle x-ray scattering (SAXS) of PA nanofibers; type: physicochemical; settings: 5 mM in PBS
Description: Small angle x-ray scattering (SAXS): SAXS characterization of the PA nanofibers was performed at the Advanced Photon Source in the Argonne National Laboratory on beamline 5-ID-D, DuPont-Northwestern-Dow Collaborative Access Team Synchrotron Research Center. Samples were prepared at 5 mM in PBS solution, aged at least 24 hours at 4° C., and analyzed in 1.5 mm quartz capillaries (Charles Supper) at 17 keV with a charged couple device photon detector located 245 cm behind the sample. Scattering intensities were collected using wave vector q range of 0.0024 to 0.40 Å^−1. q represents the scattering vector and is calculated as q=4π sin (θ)/λ, with θ as the scattering angle between the incident beam and detector and […] the X-ray wavelength. The plots of scattering intensity versus q were obtained using NIST software Igor Pro v8. The scattering intensities of PBS were subtracted from the PA samples using the Irena SAS macro, and the resulting plots were fitted using NCNR Analysis macro to a polydisperse core shell cylinder model.

[2] = system: J774.2 murine macrophages; test: Nitric oxide production of stimulated macrophages; type: cell-based, mouse; settings: 24 hours, LPS and stimulated, 32 μM Ac2-26 or epitope equivalent
Description: Macrophage culture and characterization: J774.2 murine macrophages (Sigma-Aldrich) were expanded at 4-9×10^5 cells/mL in growth media consisting of Dulbecco's Modified Eagle's Medium (Sigma-Aldrich) containing 4.5 g/L glucose, 2 mM L-glutamine, 10% v/v FBS, 100 U/m penicillin, and 100 μg/mL streptomycin. Cells were passaged using Accutase™ (StemCell Technologies) and used at passage 6-9 for all experiments. The cells were detached with Accutase™ and gentle scraping, counted, and re-suspended in flow cytometry buffer containing 2% w/v bovine serum albumin (BSA, heat shock fraction free of proteases, globulin, and fatty acids, Sigma-Aldrich) and 0.1% w/v sodium azide (Sigma-Aldrich). To minimize non-specific binding of immunoglobin to Fc receptors, macrophages were incubated with anti-mouse CD16/32 antibody (TrueStain FcX™, Biolegend) at 1 μg/1×10^5 cells for 10 minutes at 4° C. APC anti-mouse CD11b antibody or APC Armenian hamster IgG isotype control antibody (Biolegend) were added at 0.4 μg/1×10^5 cells, FPR2 antibody (Novus Biologics) was added at […], and all samples were incubated for 30 minutes at 4° C. The cells were washed once with flow cytometry buffer by centrifugation at 300×g. FPR2 samples were further treated with goat anti-rabbit Alexa Fluor 488 secondary antibody (Invitrogen) at 2 μg/1×10^5 cells for 20 minutes at 4° C., followed by a wash step. Unstained macrophages served as controls and contained 7AAD viability staining solution (Biolegend) at 0.1 μg/1×10^5. All samples were suspended in 4% paraformaldehyde (Electron Microscopy Sciences) in PBS until analysis. […] All samples were analyzed using Attune NxT Acoustic Focusing Cytometer (Thermo Fisher) with at least 2000 events counted per condition.
Therapeutic effects of ApoA1-Ac2-26 PAs: 10% ROS- and MMP-Ac2-26 PAs, as well as Ac2-26 peptide were added together with 10 μg/mL LPS at 32 μM Ac2-26 to macrophages. […] Concerning the quantification of NO, the reducing solution made of KI in acetic acid and water provides an excess of I− that reacts with nitrite yielding ·NO. […]

[3] = TEM characterization of PA nanofibers for diameter and length (Example 3); type: physicochemical; settings: 30 measurements from three images
Description: Samples at 1 mM in PBS were prepared for TEM by plating on copper supports covered with thin carbon foil 400-mesh that were treated with glow discharge. […] Due to the overlapping fibers, automated tools including FiberApp could not be used to analyze the nanofibers. Instead, the TEM images were analyzed manually for nanofiber diameter and length using ImageJ software. Cryogenic TEM of samples was also performed using a JEOL 1230 at 100 kV accelerating voltage and Gatan 831 CCD camera. […] Samples were prepared at 1 mM in PBS blotted once for 3 seconds before plunging into liquid ethane using a Vitrobot Mark III (FEI) vitrification robot.

**Q.** With “C16-V2A2 (SEQ ID NO: 8)-E2-NH2 [Diluent PA]” as the substance, how does the “SAXS slope of Guinier regime in the low q region” value [1] read?
**A.** Its value is −1.

**Q.** What about the “macrophage activation, nitric oxide production relative to the stimulated control” value [2] of the same substance?
**A.** Its value is “did not cause significant decreases in nitric oxide production”.

**Q.** And the “Diameter (nm) Average” value [3]?
**A.** Its value is 12.3 nm.

**Q.** And the “Diameter (nm) Median” value [3]?
**A.** The value was 12.4 nm.

**Q.** And the “Length (nm) Average” value [3]?
**A.** The value was 3024.4 nm.

**Q.** What about the “Length (nm) Median” value [3] of the same substance?
**A.** The value was 2541.4 nm.

**Q.** And the “Diameter (nm) Average” value ([3]; listed as diluent)?
**A.** Its value is 12.3±3.1 nm.

**Q.** What about the “Length (nm) Median” value ([3]; listed as diluent) of the same substance?
**A.** Its value is 2541 nm.
